Key:
MCF7 (Breast) = assay: In vitro one dose primary anticancer assay; type: cell-based, human; conditions: one dose at 10^−4 molar concentration
Description: (§1) Cytotoxicity: 7-methoxy-8-[3′-(4″-acridonylcarboxamido)propyl]-oxy-(11aS)1,2,3,11a-tetrahydro-5H-pyrrolo[2,1-c][1,4]benzodiazepin-5-one of formula IV was evaluated for primary anti-cancer activity (Table 1) and in vitro against sixty human tumour cells derived from nine cancer types (leukemia, non-small-cell lung, colon, CNS, melanoma, ovarian, prostate, and breast cancer). For each compound, dose response curves for each cell line were measured at a minimum of five concentrations at 10 fold dilutions. A protocol of 48 h continuous drug expose was used and a sulforhodamine B (SRB) protein assay was used to estimate cell viability or growth. The concentration causing 50% cell growth inhibition (GI50), total cell growth inhibition (TGI, 0% growth) and 50% cell death (LC50, −50% growth) compared with the control was calculated.

NCI-H460 (Lung) = assay: In vitro one dose primary anticancer assay; type: cell-based, human; conditions: one dose at 10^−4 molar concentration
Description: as §1

SF-268 (CNS) = assay: In vitro one dose primary anticancer assay; type: cell-based, human; conditions: one dose at 10^−4 molar concentration
Description: as §1

sixty human tumour cells = assay: NCI in vitro cytotoxicity, SRB assay, mean graph midpoints; type: cell-based; conditions: 48 h continuous drug exposure
Description: as §1

Breast cancer cell lines = assay: NCI in vitro cytotoxicity, SRB assay, cancer type average; type: cell-based, human; conditions: average of six to nine cell lines
Description: as §1
(§2) Each cancer type represents the average of six to nine different cancer cell lines.

CNS cancer cell lines = assay: as above; type: cell-based, human; conditions: average of six to nine cell lines
Description: as §1, §2

Colon cancer cell lines = assay: as above; type: cell-based, human; conditions: average of six to nine cell lines
Description: as §1, §2

[1] = tested on: Melanoma cancer cell lines; assay: as above; type: cell-based, human; conditions: average of six to nine cell lines
Description: as §1, §2

[2] = tested on: Ovarian cancer cell lines; assay: as above; type: cell-based, human; conditions: average of six to nine cell lines
Description: as §1, §2

Renal cancer cell lines = assay: as above; type: cell-based, human; conditions: average of six to nine cell lines
Description: as §1, §2

[3] = tested on: non-small-cell lung cancer cell lines; assay: as above; type: cell-based, human; conditions: average of six to nine cell lines
Description: as §1, §2

CNS cancer (SNB-75) = assay: NCI in vitro cytotoxicity, SRB assay; type: cell-based, human; conditions: SNB-75 CNS; read-out: potency at the LC50 level
Description: as §1

[4] = tested on: breast cancer (MDA-MB-435); assay: NCI in vitro cytotoxicity, SRB assay; type: cell-based, human; conditions: MDA-MB-435 breast; read-out: potency at the LC50 level
Description: as §1

colon cancer (HCC-2998) = assay: NCI in vitro cytotoxicity, SRB assay; type: cell-based, human; conditions: HCC-2998 colon; read-out: potency at the LC50 level
Description: as §1

[5] = tested on: melanoma cancer (UACC-62); assay: NCI in vitro cytotoxicity, SRB assay; type: cell-based, human; conditions: UACC-62 melanoma; read-out: potency at the LC50 level
Description: as §1

[6] = tested on: melanoma cancer cell line LOXIMVI; assay: NCI in vitro cytotoxicity, SRB assay; type: cell-based, human; conditions: read-out: potency at the LC50 level
Description: as §1

[7] = tested on: melanoma cancer cell line M14; assay: NCI in vitro cytotoxicity, SRB assay; type: cell-based, human; conditions: read-out: potency at the LC50 level
Description: as §1

renal cancer (SN12C) = assay: NCI in vitro cytotoxicity, SRB assay; type: cell-based, human; conditions: read-out: potency at the LC50 level
Description: as §1

## COc1cc2c(cc1OCCCNC(=O)c1cccc3c(=O)c4ccccc4[nH]c13)N=C[C@@H]1CCCN1C2=O [Compound IV, 7-methoxy-8-[3′-(4″-acridonylcarboxamido)propyl]-oxy-(11aS)1,2,3,11a-tetrahydro-5H-pyrrolo[2,1-c][1,4]benzodiazepin-5-one]
MCF7 (Breast)
  Growth percentages (Breast) MCF7: 0%
NCI-H460 (Lung)
  Growth percentages (Lung) NCI-H460: 0%
SF-268 (CNS)
  Growth percentages (CNS) SF-268: 10%
Sixty human tumour cells; 50% cell death
  Log10 LC50 mean graph midpoint (MG_MID): −4.32
Sixty human tumour cells; 50% cell growth inhibition
  Log10 GI50 mean graph midpoint (MG_MID): −7.73
Sixty human tumour cells; total cell growth inhibition
  Log10 TGI mean graph midpoint (MG_MID): −5.56
Breast cancer cell lines
  Log LC50 (concentration in mol/L causing 50% lethality): −4.40 mol/L
CNS cancer cell lines
  Log LC50 (concentration in mol/L causing 50% lethality): −4.425 mol/L
Colon cancer cell lines
  Log LC50 (concentration in mol/L causing 50% lethality): −4.33 mol/L
[1]
  Log LC50 (concentration in mol/L causing 50% lethality): −5.09 mol/L
[2]
  Log LC50 (concentration in mol/L causing 50% lethality): −4.012 log(mol/L)
Renal cancer cell lines
  Log LC50 (concentration in mol/L causing 50% lethality): −4.27 mol/L
[3]
  Log LC50 (concentration in mol/L causing 50% lethality): −4.14 log10(mol/L)
CNS cancer (SNB-75)
  LC50 (concentration causing 50% cell death): 100 nM
[4]
  CC50: 100 nM
Colon cancer (HCC-2998)
  LC50 (concentration killing 50% of cells): 100 nM
[5]
  LC50 (concentration causing 50% cell death): < 10 nM
[6]
  CC50: > 10000 nM
[7]
  LC50: > 10000 nM
Renal cancer (SN12C)
  LC50 (concentration causing 50% cell death): > 10000 nM
